This passage reports EC50 results from PubChem BioAssay AID434951 (Broad Institute, 2010).

The source made the active and inactive calls.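 How the source made its calls: active means a fitted half-maximal concentration EC50 for the rise in nuclear signal no higher than ten times the top dose tested; inconclusive means flat fit with activity between 30% and 70%, or unusable fit; inactive means EC50 beyond ten times the top dose.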

Hypoxia-inducible factor 1-alpha (Homo sapiens), sequence (Q16665 whole entry, looked up): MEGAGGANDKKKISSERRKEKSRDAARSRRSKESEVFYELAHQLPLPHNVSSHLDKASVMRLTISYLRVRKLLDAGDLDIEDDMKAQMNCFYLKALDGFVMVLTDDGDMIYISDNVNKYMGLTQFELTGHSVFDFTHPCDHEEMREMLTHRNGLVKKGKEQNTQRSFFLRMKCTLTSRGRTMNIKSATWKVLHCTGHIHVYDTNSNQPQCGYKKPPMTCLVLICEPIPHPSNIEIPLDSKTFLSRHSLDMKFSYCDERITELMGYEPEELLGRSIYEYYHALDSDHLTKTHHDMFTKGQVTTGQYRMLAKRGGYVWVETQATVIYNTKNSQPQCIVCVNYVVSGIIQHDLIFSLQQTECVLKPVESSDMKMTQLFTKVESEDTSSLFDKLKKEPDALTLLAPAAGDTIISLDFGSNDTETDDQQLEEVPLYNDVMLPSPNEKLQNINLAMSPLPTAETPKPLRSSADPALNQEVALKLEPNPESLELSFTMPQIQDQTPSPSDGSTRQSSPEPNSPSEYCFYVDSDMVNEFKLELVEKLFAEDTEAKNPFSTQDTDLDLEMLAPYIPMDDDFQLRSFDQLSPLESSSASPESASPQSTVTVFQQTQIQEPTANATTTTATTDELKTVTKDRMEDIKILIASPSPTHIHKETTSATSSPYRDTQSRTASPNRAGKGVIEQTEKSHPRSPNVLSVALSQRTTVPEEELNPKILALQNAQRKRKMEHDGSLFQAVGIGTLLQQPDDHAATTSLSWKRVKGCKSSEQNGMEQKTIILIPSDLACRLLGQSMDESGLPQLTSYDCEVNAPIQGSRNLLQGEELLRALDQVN

The test addresses Hypoxia-inducible factor 1-alpha (Homo sapiens) (UniProt Q16665). The test is described as follows: HIF pathway activation, GFP-HIF1alpha translocation – imaging, fluorescence, U2OS GFP-HIF1alpha, confirmation (AID 434951). The following applies: U2OS GFP-HIF1alpha nuclear intensity, high-content imaging.
In the case of `COc1ccc(/C=N/Nc2ncnc3sc4c(c23)CCCC4)cc1OC`, the EC50 was > 35 µM (inactive).

For `Cc1cccc(-c2noc(CN(C)S(=O)(=O)c3cc(Cl)ccc3Cl)n2)c1`, the EC50 is > 35 µM (inactive).

As to `Cc1ccc(NC(=O)CSc2ncc3ccccn23)cc1`, the EC50 was > 35 µM (inactive).

For the compound `CCC/C(=N/NC(=O)c1cccc(Cl)c1)c1ccccc1`, the EC50 is > 35 µM (inactive).

For `Cc1ccc(O)c(NC(=O)c2ccc3c(c2)C(=O)N(Cc2ccco2)C3=O)c1`, the EC50 is > 35 µM (inactive).

For `COc1ccc(CCNC(=O)c2cc(-c3cccs3)on2)cc1OC`, the EC50 is 7.39 µM.

In the case of `Cc1cccc(N2CCN(c3ccc(N4C(=O)CCCC4=O)cc3[N+](=O)[O-])CC2C)c1` (stereo not given), the EC50 was > 35 µM (inactive).

For `CCOC(=O)Cc1nn(CC)c(=O)c2ccccc12`, the EC50 is > 35 µM (inactive).

With `C/C(=N\O)C(=O)Nc1ccccc1`, the EC50 was > 35 µM (inactive).

Consider `COc1ccccc1-c1cc(C(F)(F)F)nc(S(=O)(=O)CCCC(=O)N2CCOCC2)n1`, for which the EC50 is > 35 µM (inactive).

For `Cc1ccc(C(CC(=O)O)C2CCOC(C)(C)C2)cc1` (stereo not given), the EC50 was > 35 µM (inactive).

For `CCCC(=O)NC(c1ccccc1Cl)c1ccc2cccnc2c1O` (stereo not given), the EC50 is 6.66 µM.

As for `C(=N\Nc1nc2ccccc2[nH]1)/c1cccc2nccnc12`, the EC50 is 15.8 µM.

On to `C/C(=N\NC(=O)c1cc(-c2cccnc2)nc2ccccc12)c1ccccc1O`, for which the EC50 is 21.9 µM.

Regarding `Cc1sc2ncnc(Sc3nnnn3-c3ccc(Cl)cc3)c2c1C`, the EC50 was > 35 µM (inactive).

With `CCCCc1c(C)nc(N)[nH]c1=O`, the EC50 is > 35 µM (inactive).

Take `O=C1CSCN1c1ccc(Cl)cc1`: the EC50 is > 35 µM (inactive).

With `COCCNC(=O)c1cc(-c2cccs2)on1`, the 50% effective concentration (EC50) is 12 µM.

Turning to `CCCCCCC1CCC(c2nc(-c3ccncc3)no2)CC1` (stereo not given), the EC50 is > 35 µM (inactive).

For `Oc1ccccc1C(Nc1nccs1)c1ccc2cccnc2c1O` (stereo not given), the EC50 is 6.57 µM.

Turning to `CCC1Oc2ccccc2N(CC(=O)Nc2ccccc2OC)C1=O` (stereo not given), the EC50 is > 35 µM (inactive).

On to `CC(=O)Nc1ccc(Nc2nc(C)c([N+](=O)[O-])c(Nc3ccc(NC(C)=O)cc3)n2)cc1`, for which the EC50 is > 35 µM (inactive).

As for `Cc1cc2ccc3ccccc3c2cc1CN(C)C`, the EC50 was > 35 µM (inactive).

As for `CCCOc1cccc(C2C(C(=O)c3ccco3)=C(O)C(=O)N2CCCn2ccnc2)c1` (stereo not given), the EC50 is > 35 µM (inactive).

As to `O=[N+]([O-])c1ccc(N=Cc2ccc(Br)c([N+](=O)[O-])c2)cc1`, the EC50 is 15.4 µM.

Take `O=C(N/N=C/c1c(O)ccc2ccccc12)c1ccc(CO)nc1`: the EC50 is 6.6 µM.

`CCC(C)NCCOc1ccc(C)cc1[N+](=O)[O-]` (stereo not given): the EC50 is > 35 µM (inactive).

Consider `COc1ccc(NC(=O)c2cccs2)cn1`, for which the EC50 was > 35 µM (inactive).

On to `CCNS(=O)(=O)c1ccc(NC(=O)c2cncc(Br)c2)cc1`, for which the EC50 is > 35 µM (inactive).

For `CC(=O)NCCC(=O)Nc1cc(S(=O)(=O)N2CCOCC2)ccc1N1CCOCC1`, the EC50 was > 35 µM (inactive).

As for `Cc1cccc(NC(=S)N2CCC(N(C)CC3CCCO3)CC2)c1` (stereo not given), the EC50 is > 35 µM (inactive).

Turning to `O=C(Nc1nc(-c2ccccn2)cs1)c1ccc(S(=O)(=O)N2CCCCC2)cc1`, the EC50 was 7.12 µM.

With `CN1CCN(C2Cc3ccc(F)cc3Sc3cc(F)c(Cl)cc32)CC1` (stereo not given), the EC50 was > 35 µM (inactive).

As to `Nc1ccc(C(=O)N/N=C\c2cc(N=Nc3cccc4ccccc34)ccc2O)cc1`, the EC50 is 35.8 µM.

For `CCCCC(=O)NC(c1ccccc1Cl)c1ccc2cccnc2c1O` (stereo not given), the EC50 was 3.16 µM.

In the case of `Cc1ccc(NC(=O)Nc2cccc(F)c2)nc1`, the EC50 is > 35 µM (inactive).

`COc1cccc(/C=N/Nc2ncnc3c2ncn3Cc2ccccc2)c1O`: the EC50 was 5.97 µM.

As to `CCNc1nc(Cl)nc(NNC(=O)C(C)Oc2ccccc2)n1` (stereo not given), the EC50 is > 35 µM (inactive).

For the compound `CCOC(=O)/C(=N\Nc1cccc(C(F)(F)F)c1)N1CCOCC1`, the EC50 is > 35 µM (inactive).

Take `CCCCCC(=O)NNC(=S)NC(=O)c1cccc([N+](=O)[O-])c1`: the EC50 is > 35 µM (inactive).

As for `O=C1N/C(=C/c2cccs2)C(=O)N1Cc1ccc(Br)cc1`, the EC50 is > 35 µM (inactive).

For the compound `Cn1ncc(Br)c1NC(=O)CSc1ccc(Cl)cc1`, the EC50 was > 35 µM (inactive).

For `CCCCC(=O)NC(c1ccccc1)c1ccc2cccnc2c1O` (stereo not given), the EC50 is 17.4 µM.

`CC(=O)Nc1ccc2c(c1)CCCC2=O`: the EC50 was > 35 µM (inactive).

As for `Cc1cc(Oc2ccccc2)nc(N2CCOCC2)n1`, the EC50 is > 35 µM (inactive).

As to `CCc1cc2c(=O)[nH]c(-c3ccccn3)nc2s1`, the EC50 was 4.75 µM.

Regarding `COc1ccc(Cc2nnc(SCC(=O)NC3CCCCC3)n2C)cc1`, the EC50 is > 35 µM (inactive).

As to `Cc1ccc2nc(SCC(=O)Nc3ccc(Br)cc3)nc(=O)n2c1`, the EC50 is > 35 µM (inactive).

With `C=CCN1C(=O)c2ccccc2Sc2ccc(C(=O)N3CCN(C)CC3)cc21`, the EC50 was > 35 µM (inactive).

As for `COc1ccc(/C=C(\C#N)c2nc3ccccc3[nH]2)cc1O`, the EC50 was > 35 µM (inactive).

In the case of `CCOC(=O)c1cnc(-n2nc(C)cc2C)nc1NNc1nc(-c2ccccc2)cc(-c2ccccc2)n1`, the EC50 was 1.81 µM.

As for `CCC(=O)NC(c1ccc(C)cc1)c1ccc2cccnc2c1O` (stereo not given), the EC50 was 3.85 µM.

`Cc1nc2nc3c(cn2n1)C(=O)CC(c1ccccc1)C3` (stereo not given): the EC50 was > 35 µM (inactive).

Turning to `CCN(CC)CCn1nc2c3c(cccc3c1=O)-c1ccccc1-2`, the EC50 was > 35 µM (inactive).

On to `O=C(COC(=O)Cc1ccc(S(=O)(=O)N2CCCCC2)s1)Nc1ccc2c(c1)OCO2`, for which the EC50 was > 35 µM (inactive).

For the compound `Cn1c(CCNC(=O)c2ccco2)nc2cc(NC(=O)C3CCCCC3)ccc21`, the EC50 is > 35 µM (inactive).

For the compound `CCC/C(O)=C1\C(=O)CC(C)(C)CC1=NCc1ccccc1`, the EC50 was > 35 µM (inactive).

With `Nc1nonc1-n1nnc(C(=O)N/N=C/c2cc(Br)ccc2O)c1CSC1=NCCS1`, the EC50 is 29.6 µM.

`Cc1cc(N/C=C/C(=O)c2ccc(Br)cc2)no1`: the EC50 was > 35 µM (inactive).

Turning to `Cc1cc(SCC(=O)N/N=C/c2ccccc2C(=O)O)c(C)cc1Br`, the EC50 is > 35 µM (inactive).

In the case of `CNC(=O)C1CC(=O)N(c2ccc(OCC(=O)N3CCCC3)cc2)C1` (stereo not given), the EC50 was > 35 µM (inactive).

As for `Cc1cc(NC(=O)C2CC(=O)N(c3cccc(C)c3C)C2)no1` (stereo not given), the concentration giving a half-maximal response (EC50) is 33.3 µM.

For the compound `O=C(NNC(=O)c1ccccc1Br)c1ccc(Cl)cc1`, the EC50 is > 35 µM (inactive).

Regarding `COc1ccc(C(=O)NCCc2nc3cc([N+](=O)[O-])ccc3n2C)cc1`, the EC50 is > 35 µM (inactive).

Consider `CCOC(=O)c1c(-c2ccccc2)oc2cc(CN(C)C)c(O)c(CN(C)C)c12`, for which the EC50 is 5.53 µM.

Take `CC(C)CC1NC(=O)N(Cc2cc(=O)n3ccsc3n2)C1=O` (stereo not given): the EC50 was > 35 µM (inactive).

As for `COc1ccc(NC(=S)Nc2ccccn2)c(OC)c1`, the EC50 is > 35 µM (inactive).

Regarding `O=C(N/N=C/c1c(O)ccc2ccccc12)c1cccnc1`, the EC50 was 0.678 µM.

For `O=C(N/N=C/c1cc(Cl)cc(Cl)c1O)c1ccncc1`, the EC50 was > 35 µM (inactive).

With `Cn1nc(C(=O)NCCCN2CCCCC2)c2c1-c1ccccc1S(=O)(=O)C2`, the EC50 is > 35 µM (inactive).

As to `O=C(O)c1ccc(N2C(=O)CSC2=S)cc1`, the EC50 was > 35 µM (inactive).

On to `Nc1nc2nc(-c3cccs3)cc(C(F)(F)F)n2n1`, for which the EC50 is > 35 µM (inactive).

As to `CC(C)COc1cccc(C(=O)NNC(=O)C2COc3ccccc3O2)c1` (stereo not given), the EC50 is > 35 µM (inactive).

With `COc1ccccc1NC(=O)c1nc(S(=O)(=O)Cc2ccccc2)ncc1Cl`, the EC50 is > 35 µM (inactive).

Take `CCC(=O)c1ccc(N2CCN(C(=O)c3ccc(Br)cc3)CC2)c(F)c1`: the EC50 was > 35 µM (inactive).

As for `CC(=O)N1CCC(=NNC(=O)c2cc3ccccc3cc2O)CC1`, the EC50 is > 35 µM (inactive).

Consider `COc1ccc(/C=N/NC(=O)c2cccnc2)cc1CN1CCN(c2ccc(F)cc2)CC1`, for which the EC50 is > 35 µM (inactive).

For the compound `Cc1ccc(/C=N/NC(=O)c2c(-c3ccccc3)noc2C)c(O)c1`, the concentration giving a half-maximal response (EC50) was 6.81 µM.

Turning to `COc1ccc(-c2csc(NNC3=NCCCCC3)n2)cc1`, the EC50 is 30.1 µM.

`O=[N+]([O-])c1ccc(N/N=C/c2ccccc2O)cc1`: the EC50 was > 35 µM (inactive).

On to `Cc1ccc(C)c(S(=O)(=O)N2CCN(Cc3ccc(O)c4ncccc34)CC2)c1`, for which the 50% effective concentration (EC50) was 6.84 µM.

As to `O=C(NCC1CCCO1)c1cc(-c2ccccc2)on1` (stereo not given), the EC50 is 6.78 µM.

`Cc1cccc(NC(=O)COc2cccc3c2CCN(C)C3=O)c1C`: the EC50 is > 35 µM (inactive).

Consider `CN(C)c1ccc(N=Nc2ccc(S(N)(=O)=O)cc2)cc1`, for which the EC50 was > 35 µM (inactive).

Regarding `COc1ccc2c(c1)-c1nc(NC(=O)c3ccco3)sc1CC2`, the EC50 was > 35 µM (inactive).

Take `CN(Cc1cccs1)C(=O)CSc1nc(N)cc(N)n1`: the EC50 is > 35 µM (inactive).

With `Cc1cccc(C(=O)OC(C)CN2CCCC2)c1` (stereo not given), the EC50 was > 35 µM (inactive).

As for `CC(C)Sc1nc(N)c2c3c(sc2n1)CN(C)CC3`, the EC50 was > 35 µM (inactive).

Regarding `O=C(NCC1CCCO1)c1cc(-c2ccccc2F)no1` (stereo not given), the EC50 is 21.7 µM.

Turning to `COc1ccc(-c2nc(C#N)c(N3CCN(C(=O)c4ccco4)CC3)o2)cc1OC`, the EC50 was > 35 µM (inactive).

Take `CCN1/C(=C/c2ccc3cc(C)ccc3[n+]2CC)Sc2ccccc21`: the concentration for a half-maximal effect (EC50) was 13.1 µM.

Consider `CN(C)S(=O)(=O)c1cccc(NC(=S)N/N=C/c2cc(Br)ccc2O)c1`, for which the EC50 is 12.7 µM.

Consider `O=C(NCCSc1c[nH]c2ccccc12)c1ccc(Br)o1`, for which the EC50 was > 35 µM (inactive).

Turning to `COc1ccc(C2NN=C(c3ccc(C)cc3)S2)cc1` (stereo not given), the EC50 was > 35 µM (inactive).

Regarding `Cc1ccc(-c2cc(N)n(-c3ccc(F)cc3)n2)cc1`, the EC50 is > 35 µM (inactive).

The EC50 is the concentration needed to bring the measured effect to its halfway point.
